Laboratory results from patent publication US9127024B2 (Intrexon Corporation, priority 2013, dated 2015).

What was measured:
in vivo = settings: female, Sprague Dawley, rat, po, 10 mg/kg
Procedure: (§1) Female Sprague Dawley rats were fasted for at least 8 hours (overnight) prior to oral dosing of the compound via gavage (10 mg/kg; vehicle=2 mg/mL of Capryol 90/Triacetin (1:1, v/v); 3 animals/compound) and weighed prior to dosing. The correct volume of the appropriate formulation was administered based on that day's (animal) body weight. Body weight, dose volume, and dosing time was recorded for each animal. Animals were not fed for at least 4 hours following activator ligand administration.
(§2) Approximately 200 μL/blood sample was collected from the catheter sample points in EDTA tubes at each time point from each animal. The exact time of blood collection was recorded for each animal Blood samples were held at 4° C. (wet ice) starting immediately after collection and were centrifuged within 15 minutes from the collection for 12 minutes at 2500 rpm. After centrifugation, plasma samples were stored at ^−80° C. until assay. Sample times were as follows: Day 0: 0, 0.5, 1, 2, 3, 4, 6 and 8 hours; Day 1: 24 hours.
(§3) LC-MS/MS Method: Liquid chromatography tandem mass spectrometry with protein precipitation method was used to quantify the compound in rat plasma samples collected from all animals dosed with the ligand. Linearity range was from 1 ng/mL to 1000 ng/mL, with correlation coefficient for calibration curves above 0.99 and analyte quantified within ±15% of target at all calibrator concentrations.
(§4) The plasma ligand concentration was calculated by extrapolating the area under the curve values for the samples from the standard curve generated by the Analyst® software program. The ng/mL values for the plasma samples representing all the animals were used to generate the pharmacokinetic (PK) parameters.

[1] = target: RheoSwitch® (CHO-K1_RS-1 cells, firefly Luciferase reporter) (Choristoneura fumiferana, UniProt O77240); experiment: in vitro gene switch assay (fLUC Luciferase expression, potency screen); type: cell-based; settings: read-out: fLUC assay EC50, 24 hours with compound, 25 μM to 2.5 pM, figure in parentheses after a value not defined
Chain of RheoSwitch® (CHO-K1_RS-1 cells, firefly Luciferase reporter) (O77240 1-513): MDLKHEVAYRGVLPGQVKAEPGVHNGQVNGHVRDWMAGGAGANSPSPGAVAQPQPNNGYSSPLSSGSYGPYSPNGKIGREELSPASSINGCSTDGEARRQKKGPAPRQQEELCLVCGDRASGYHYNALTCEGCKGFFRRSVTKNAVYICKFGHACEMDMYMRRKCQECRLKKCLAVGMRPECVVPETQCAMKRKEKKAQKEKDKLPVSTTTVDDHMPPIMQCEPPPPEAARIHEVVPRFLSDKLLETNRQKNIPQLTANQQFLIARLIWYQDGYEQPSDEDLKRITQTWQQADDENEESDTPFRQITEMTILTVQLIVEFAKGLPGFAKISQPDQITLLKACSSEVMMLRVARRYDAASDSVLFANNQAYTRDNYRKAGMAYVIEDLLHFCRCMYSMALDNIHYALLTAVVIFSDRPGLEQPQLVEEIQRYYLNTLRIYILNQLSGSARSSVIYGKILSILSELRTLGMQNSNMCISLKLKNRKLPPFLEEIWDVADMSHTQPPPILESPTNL
From the text: Gene switch assays are disclosed, e.g., in U.S. Pat. Nos. 8,076,517; 7,456,315; 7,304,161; and 6,258,603.
CHO-K1 cells were stably transfected with a plasmid (RS-1, FIG. 1) coding for firefly Luciferase (fLUC) under the control of the RheoSwitch® resulting in the stable cell line CHO-K1_RS-1. A master cell bank was created containing approximately 100 vials at 5×10^6 cells per vial. One vial of CHO-K1_RS-1 was thawed and cultured for two weeks prior to each in vitro potency screening.
Twenty-four (24) hours prior to treatment with the control and test compounds the CHO-K1_RS-1 cells were seeded into white-opaque 384-well cell culture plates at 3,600 cells per well in 30 μl of culture medium. The cells were incubated in a humidified CO2 incubator at 37° C. until compound treatment.
Compounds were prepared at 25 mM in 100% dry DMSO and stored at room temperature in sealed 1 ml tubes prior to subsequent dilution and assay. On the day of cell treatment the tubes containing the control and test compounds were sorted and the ligands transferred to a 96-well polypropylene plate for subsequent dilution. The compounds were diluted in 100% dry DMSO in an 8-point, 10-fold dilution series ranging from 25 mM to 2.5 nM using the Biomek FX automated liquid handler.
The diluted compounds were then transferred to each well of 384-well polypropylene plate in quadruplicate resulting in a single 384-well plate with four replicates of each compound dilution in a different quadrant of the plate. Each well on the 384-well plate received 20 μl of diluted compound. The 384-well plates containing diluted compound and the plates containing cells in culture were loaded onto the Biomek FX and 30 nl of compound was delivered to each well containing cells using a 384-pin V&P Scientific Pin Tool. The resulting 1000-fold dilution (30 nl to 30 μl) generated a final dosing range of 25 μM to 2.5 pM in 0.1% DMSO. Two replicate plates were produced to supply a dedicated plate for the Luciferase expression assay and the APH cell viability assay.
The cells were incubated with the compound for 24 hours in a humidified CO2 incubator at 37° C. Following incubation, the cells were assayed for Luciferase expression (fLUC assay) using the Steady Glo assay from Promega. Cells were equilibrated to room temperature for 15 minutes prior to reagent addition. Thirty micro liters (30 μl) of assay reagent was added to each well of the 384-well plate using the Biomek FX. The reagent was incubated with the cells for 10-120 minutes prior to reading on a Molecular Devices Spectramax L luminometer. The assay reagents were prepared as per the manufacturer's instructions.
The Luciferase expression data was normalized to the baseline signal from cells treated with DMSO alone. The ratio of signal from treated cells to vehicle-treated cells was plotted and non-linear regress was performed using Graph Pad Prism software. EC50, (log)EC50 and Hill slope data was generated. Reporter gene expression, e.g., luciferase expression, serves as a proxy for the expression of a gene of interest. See, e.g., US 2009/0123441 and WO 2011/119773.

[2] = Pharmacokinetic (PK) study, oral gavage, plasma LC-MS/MS; settings: female Sprague Dawley rats, oral gavage 10 mg/kg, Capryol 90/Triacetin (1:1, v/v); for Clearance: oral clearance; for AUC(0-t): AUC0−t
Procedure: as §1, §2, §3, §4

[3] = listed as Cpd. No. 13 (Lot # 1), 10 mg/kg
[4] = listed as Cpd. No. 13 (Lot # 2), 10 mg/kg
[5] = female, Sprague Dawley, rat, po, 10 mg/kg, Tmax
[6] = female, Sprague Dawley, rat, po, 10 mg/kg, half-life
[7] = female, Sprague Dawley, rat, po, 10 mg/kg
[8] = female, Sprague Dawley, rat, po, 10 mg/kg, Cmax
[9] = listed as Cpd. No. 59 (Lot # 1), 10 mg/kg
[10] = listed as Cpd. No. 59 (Lot # 2), 10 mg/kg

| SMILES | EC50 [1] | Tmax [2, 5] | half-life [2, 6] | AUC(0-t) [2, 7] | Cmax [2, 8] | Clearance [2] | further results |
| --- | --- | --- | --- | --- | --- | --- | --- |
| Cc1cc(C)cc(C(=O)N(NC(=O)c2ccc3c(c2C)OCCO3)C(C)(C)C)c1 [Cpd. C] | – | – | – | – | – | – | AUC(0-t) (in vivo; AUC0−t): 510 ng·h/mL; Cmax (in vivo; Cmax): 112 ng/mL; Tmax (in vivo; Tmax): 2.5 h |
| CCC[C@@H](N(NC(=O)c1ccc(B(O)O)cc1F)C(=O)c1cc(C)cc(C)c1)C(C)(C)C [Cpd. No. 13, (R)-(4-(2-(3,5-dimethylbenzoyl)-2-(2,2-dimethylhexan-3-yl)hydrazinecarbonyl)-3-fluorophenyl)boronic acid] | 64 nM | 2.7 h | 192 min | – | – | – | AUC0−t [2, 3]: 10579 ng·h/mL; Cmax [2, 3]: 1415 ng/mL; AUC0−t [2, 4]: 60407 ng·h/mL; Cmax [2, 4]: 7060 ng/mL; Tmax [2, 4]: 3.3 h; half-life [2, 4]: 258 min; Clearance [2, 3]: 938 mL/h/kg; Clearance [2, 4]: 169 mL/h/kg |
| CCC[C@@H](N(NC(=O)c1ccc(B(O)O)c(F)c1)C(=O)c1cc(C)cc(C)c1)C(C)(C)C [Cpd. No. 22, (R)-(4-(2-(3,5-dimethylbenzoyl)-2-(2,2-dimethylhexan-3-yl)hydrazinecarbonyl)-2-fluorophenyl)boronic acid] | 105 nM | 3 h | 336 min | 25000 ng·h/mL | 2730 ng/mL | 407 mL/h/kg | – |
| Cc1cc(C)cc(C(=O)N(NC(=O)c2ccc3c(c2F)B(O)OC3)C(C)(C)C)c1 [Cpd. No. 58, N′-(tert-butyl)-N′-(3,5-dimethylbenzoyl)-7-fluoro-1-hydroxy-1,3-dihydrobenzo[c][1,2]oxaborole-6-carbohydrazide] | 640 nM | 3 h | 924 min | 30800 ng·h/mL | 2650 ng/mL | 214 mL/h/kg | – |
| CC[C@@H](N(NC(=O)c1ccc2c(c1F)B(O)OC2)C(=O)c1cc(C)cc(C)c1)C(C)(C)C [Cpd. No. 59, (R)—N′-(3,5-dimethylbenzoyl)-N′-(2,2-dimethylpentan-3-yl)-7-fluoro-1-hydroxy-1,3-dihydrobenzo[c][1,2]oxaborole-6-carbohydrazide] | 108 nM | – | 312 min | – | 11200 ng/mL | – | AUC0−t [2, 9]: 127700 ng·h/mL; Tmax [2, 9]: 5 h; AUC0−t [2, 10]: 300721 ng·h/mL; Cmax [2, 10]: 18833 ng/mL; Tmax [2, 10]: 1.8 h; half-life [2, 10]: 600 min; Clearance [2, 9]: 84 mL/h/kg; Clearance [2, 10]: 32.3 mL/h/kg |
| CC[C@@H](N(NC(=O)c1ccc2c(c1F)COB2O)C(=O)c1cc(C)cc(C)c1)C(C)(C)C [Cpd. No. 67, (R)—N′-(3,5-dimethylbenzoyl)-N′-(2,2-dimethylpentan-3-yl)-4-fluoro-1-hydroxy-1,3-dihydrobenzo[c][1,2]oxaborole-5-carbohydrazide] | 309 nM | 3 h | 330 min | 24500 ng·h/mL | 3320 ng/mL | 398 mL/h/kg | – |
